Source: patent US5837852A, “Capped nucleic acid oligomers that inhibit cap-dependent transcription of the influenza virus endonuclease” (priority 1993, dated 1998)
Entries after “also recorded” stand apart in the source; their conditions may differ. {m7Gppp} = cap: 7-methylguanosine joined 5'-5' by triphosphate; m = 2'-O-methyl; r = 2'-OH (RNA); {P} = phosphate

Key:
viral cores = conditions: glycerol gradients, reference 3; cited from earlier work
[1] = test system: influenza virus endonuclease (viral polymerase in viral cores); assay: Viral endonuclease cleavage reaction of capped RNA substrates with viral cores; format: biochemical, Influenza A/PR/8 virus (H1N1); conditions: for endonucleolytic cleavage by viral cores (in words): absence of nucleotide triphosphates; for dephosphorylation of the 3' phosphate by the viral polymerase (in words): 3'-phosphate terminated fragments with viral cores
[2] = test system: viral polymerase (viral cores); assay: Elongation (priming of transcription) of capped RNA fragments by viral cores with NTPs; format: biochemical, Influenza A/PR/8 virus (H1N1); conditions: with NTPs (ATP, CTP, GTP)

Substance | endonucleolytic cleavage by viral cores (in words) [1] | elongation / priming of transcription by viral cores (in words) [2] | also measured
m^7 GpppGm |  |  | co-sedimentation with viral cores (viral cores): did not
m^7 GpppGmAAUACU | neither cleaved | nor were they able to prime transcription | 
m^7 GpppGmAAUACUC | neither cleaved | nor were they able to prime transcription | 
m^7 GpppGmAAUACUCA |  |  | elongation / priming of transcription by viral cores (in words) ([2]; listed as A9-OH): inefficiently elongated; also recorded: appeared to promote an abortive elongation product or primed transcription very inefficiently
m^7 GpppGmAAUACUCAA (GAAUACUCAA; sugars from the 5' end m1 r9, 5' {m7Gppp}, backbone not given here) [ID; NO] |  | directly primed elongation | 
m^7 GpppGmAAUACUCAAG-OH (GAAUACUCAAG; sugars from the 5' end m1 r10, 5' {m7Gppp}, backbone not given here) [ID; NO; 5, capped 11-nucleotide cleavage product] | did not result in further cleavage |  | elongation / priming of transcription by viral cores (in words) ([2]; listed as G11-OH): could function as a primer for viral transcription; also recorded: able to prime with an efficiency similar to that obtained with the full-length substrate
m^7 GpppGmAAUACUCAAGC (GAAUACUCAAGC; sugars from the 5' end m1 r11, 5' {m7Gppp}, backbone not given here) [ID; NO] | a minor amount of secondary cleavage to a putative A9-OH fragment occurred | appeared to prime transcription without cleavage | 
m^7 GpppGmAAUACUCAAGCUp (GAAUACUCAAGCU; sugars from the 5' end m1 r12, 5' {m7Gppp}, 3' {P}, backbone not given here) [ID; NO] | cleaved in the absence of ribonucleotides to an 11 base primer | normal elongation is observed | 
m^7 GpppGmAAUACUCAAGCp (GAAUACUCAAGC; sugars from the 5' end m1 r11, 5' {m7Gppp}, 3' {P}, backbone not given here) [ID; NO] | little cleavage of the C12-P fragment to the G11-OH fragment occurred | A small amount of elongation was observed | dephosphorylation of the 3' phosphate by the viral polymerase (in words) [1]: little if any dephosphorylation
m^7 GpppGmAAUACUCAAGGp | cleavage to an 11-base primer resulted |  | 
m^7 GpppGmAAUACUCAAGp (GAAUACUCAAG; sugars from the 5' end m1 r10, 5' {m7Gppp}, 3' {P}, backbone not given here) [ID; NO] | A minor amount of G11-P fragment was cleaved to the A9-OH fragment | little elongation | dephosphorylation of the 3' phosphate by the viral polymerase (in words) [1]: essentially no cleavage of the 3' phosphate; also recorded: little if any dephosphorylation; dephosphorylation of the 3' phosphate by the viral polymerase (in words) ([1]; listed as G11-p): not converted to the G11-OH fragment; elongation / priming of transcription by viral cores (in words) ([2]; listed as G11-p): unable to efficiently prime transcription
m^7 GpppGmAAUACUCAAp (GAAUACUCAA; sugars from the 5' end m1 r9, 5' {m7Gppp}, 3' {P}, backbone not given here) [ID; NO] |  | little elongation | dephosphorylation of the 3' phosphate by the viral polymerase (in words) [1]: essentially no cleavage of the 3' phosphate; also recorded: little if any dephosphorylation
m^7 GpppGmUUUUUAp |  |  | co-sedimentation with viral cores (viral cores): co-sedimented efficiently
m^7 GpppGmUp |  |  | co-sedimentation with viral cores (viral cores): did not
